Laboratory results: ChEMBL document CHEMBL1201861, “Genomics of Drug Sensitity in Cancer screening data, Wellcome Trust Sanger Institute”

Legend:
[1] = system: Caov-3 cell line; assay: cells; assay type: functional, cell-based; conditions: Homo sapiens;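 note: cell growth inhibition read out by a viability assay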
Description: SANGER: Inhibition of human Caov-3 cell growth in a cell viability assay.

[2] = system: EW-7; assay: SANGER: Inhibition of human EW-7 cell growth in a cell viability assay.; assay type: functional, cell-based; conditions: Homo sapiens, EW-7
[3] = system: IPC-298; assay: SANGER: Inhibition of human IPC-298 cell growth in a cell viability assay.; assay type: functional, cell-based
[4] = system: NCI-H322M; assay: cells; assay type: functional, cell-based; conditions: Homo sapiens;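 note: cell viability assay measuring inhibition of growth of human NCI-H322M cells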
Description: SANGER: Inhibition of human NCI-H322M cell growth in a cell viability assay.

[5] = system: BL-70; assay: SANGER: Inhibition of human BL-70 cell growth in a cell viability assay.; assay type: functional, cell-based
[6] = system: SK-CO-1; assay: cells; assay type: functional, cell-based; conditions: Homo sapiens;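 note: growth inhibition of SK-CO-1 cells, determined by a viability readout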
Description: SANGER: Inhibition of human SK-CO-1 cell growth in a cell viability assay.

[7] = system: CESS; assay: SANGER: Inhibition of human CESS cell growth in a cell viability assay.; assay type: functional, cell-based
[8] = system: U-698-M; assay: cells; assay type: functional, cell-based; conditions: Homo sapiens
Description: SANGER: Inhibition of human U-698-M cell growth in a cell viability assay.

[9] = system: SR; assay: cells; assay type: functional, cell-based; conditions: Homo sapiens
Description: SANGER: Inhibition of human SR cell growth in a cell viability assay.

[10] = system: CCF-STTG1; assay: cells; assay type: functional, cell-based; conditions: Homo sapiens;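 note: growth inhibition of human CCF-STTG1 cells, determined with a cell viability read-out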
Description: SANGER: Inhibition of human CCF-STTG1 cell growth in a cell viability assay.

[11] = system: ECC12; assay: cells; assay type: functional, cell-based; conditions: Homo sapiens
Description: SANGER: Inhibition of human ECC12 cell growth in a cell viability assay.

[12] = system: BC1 cell line; assay: SANGER: Inhibition of human BC-1 cell growth in a cell viability assay.; assay type: functional, cell-based
[13] = system: MRK-nu-1; assay: cells; assay type: functional, cell-based; conditions: Homo sapiens;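 note: cell viability assay measuring growth suppression of human MRK-nu-1 cells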
Description: SANGER: Inhibition of human MRK-nu-1 cell growth in a cell viability assay.

[14] = system: MFE-296; assay: SANGER: Inhibition of human MFE-296 cell growth in a cell viability assay.; assay type: functional, cell-based
[15] = system: COLO 205; assay: cells; assay type: functional, cell-based; conditions: Homo sapiens
Description: SANGER: Inhibition of human COLO-205 cell growth in a cell viability assay.

[16] = system: NCI-H630; assay: cells; assay type: functional, cell-based, Homo sapiens; conditions: Homo sapiens, NCI-H630;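 note: growth inhibition of NCI-H630 cells, read out with a cell viability assay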
Description: SANGER: Inhibition of human NCI-H630 cell growth in a cell viability assay.

[17] = system: Daudi; assay: cells; assay type: functional, cell-based; conditions: Homo sapiens;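 note: growth inhibition of Daudi cells, read out by a viability assay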
Description: SANGER: Inhibition of human Daudi cell growth in a cell viability assay.

[18] = system: MDA-MB-468; assay: cells; assay type: functional, cell-based; conditions: Homo sapiens
Description: SANGER: Inhibition of human MDA-MB-468 cell growth in a cell viability assay.

[19] = system: JIYOYE; assay: cells; assay type: functional, cell-based; conditions: Homo sapiens
Description: SANGER: Inhibition of human JiyoyeP-2003 cell growth in a cell viability assay.

[20] = system: C-4-II; assay: SANGER: Inhibition of human C-4-II cell growth in a cell viability assay.; assay type: functional, cell-based
[21] = system: SNU-C1; assay: cells; assay type: functional, cell-based; conditions: Homo sapiens;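 note: growth inhibition of SNU-C1 human cells, read out by a cell viability assay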
Description: SANGER: Inhibition of human SNU-C1 cell growth in a cell viability assay.

[22] = system: L-540; assay: cells; assay type: functional, cell-based; conditions: Homo sapiens;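 note: growth inhibition of the human L-540 cell line, read out with a viability assay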
Description: SANGER: Inhibition of human L-540 cell growth in a cell viability assay.

[23] = system: DV-90; assay: cells; assay type: functional, cell-based; conditions: Homo sapiens;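 note: Read-out is a viability assay, with IC50 reflecting the drop in DV-90 cell growth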
Description: SANGER: Inhibition of human DV-90 cell growth in a cell viability assay.

[24] = system: NCI-H1618; assay: cells; assay type: functional, cell-based; conditions: Homo sapiens;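 note: growth inhibition of human NCI-H1618 cells, measured by a cell viability assay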
Description: SANGER: Inhibition of human NCI-H1618 cell growth in a cell viability assay.

[25] = system: HSC-4; assay: cells; assay type: functional, cell-based, Homo sapiens; conditions: Homo sapiens, HSC-4;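 note: growth inhibition of human HSC-4 cells, read out with a cell viability assay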
Description: SANGER: Inhibition of human HSC-4 cell growth in a cell viability assay.

[26] = system: CPC-N; assay: cells; assay type: functional, cell-based; conditions: Homo sapiens;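 note: growth inhibition of CPC-N cells, with a cell viability assay as the readout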
Description: SANGER: Inhibition of human CPC-N cell growth in a cell viability assay.

[27] = system: NCI-H1734; assay: cells; assay type: functional, cell-based; conditions: Homo sapiens;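 note: growth inhibition of human NCI-H1734 cells, read out with a cell viability assay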
Description: SANGER: Inhibition of human NCI-H1734 cell growth in a cell viability assay.

[28] = system: SNU-475; assay: cells; assay type: functional, cell-based; conditions: Homo sapiens
Description: SANGER: Inhibition of human SNU-475 cell growth in a cell viability assay.

[29] = system: NALM-6; assay: cells; assay type: functional, cell-based; conditions: Homo sapiens;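 note: growth inhibition of NALM-6 cells, read out with a cell viability assay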
Description: SANGER: Inhibition of human NALM-6 cell growth in a cell viability assay.

[30] = system: OPM-2; assay: cells; assay type: functional, cell-based; conditions: Homo sapiens;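 note: growth of OPM-2 cells measured with a viability assay, IC50 for suppression of proliferation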
Description: SANGER: Inhibition of human OPM-2 cell growth in a cell viability assay.

[31] = system: TT; assay: cells; assay type: functional, cell-based; conditions: Homo sapiens
Description: SANGER: Inhibition of human TT cell growth in a cell viability assay.

[32] = system: MES-SA; assay: cells; assay type: functional, cell-based, Homo sapiens; conditions: Homo sapiens, MES-SA;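 note: growth inhibition of human MES-SA cells, read out with a cell viability assay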
Description: SANGER: Inhibition of human MES-SA cell growth in a cell viability assay.

[33] = system: TALL-1; assay: cells; assay type: functional, cell-based; conditions: Homo sapiens;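 note: growth inhibition of cultured human TALL-1 cells, read out by a cell viability assay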
Description: SANGER: Inhibition of human TALL-1 cell growth in a cell viability assay.

[34] = system: SNG-M; assay: cells; assay type: functional, cell-based; conditions: Homo sapiens
Description: SANGER: Inhibition of human SNG-M cell growth in a cell viability assay.

[35] = system: EFE-184; assay: cells; assay type: functional, cell-based; conditions: Homo sapiens
Description: SANGER: Inhibition of human EFE-184 cell growth in a cell viability assay.

[36] = system: NCI-H838; assay: cells; assay type: functional, cell-based; conditions: Homo sapiens;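 note: growth inhibition of human NCI-H838 cells, read out by a cell viability assay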
Description: SANGER: Inhibition of human NCI-H838 cell growth in a cell viability assay.

[37] = system: TUR; assay: cells; assay type: functional, cell-based; conditions: Homo sapiens;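 note: growth inhibition of human TUR cells, read out with a cell viability assay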
Description: SANGER: Inhibition of human TUR cell growth in a cell viability assay.

[38] = system: Calu-1; assay: SANGER: Inhibition of human Calu-1 cell growth in a cell viability assay.; assay type: functional, cell-based
[39] = system: HCC1143; assay: cells; assay type: functional, cell-based; conditions: Homo sapiens;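 note: growth inhibition of human HCC1143 cells, read out with a cell viability assay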
Description: SANGER: Inhibition of human HCC1143 cell growth in a cell viability assay.

[40] = system: LC-1F; assay: cells; assay type: functional, cell-based; conditions: Homo sapiens;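 note: growth inhibition of human LC-1F cells, read out with a cell viability assay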
Description: SANGER: Inhibition of human LC-1F cell growth in a cell viability assay.

[41] = system: MC-CAR; assay: cells; assay type: functional, cell-based; conditions: Homo sapiens;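 note: growth inhibition of the human MC-CAR cell line, read out by a cell viability assay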
Description: SANGER: Inhibition of human MC-CAR cell growth in a cell viability assay.

[42] = system: HCT-15; assay: cells; assay type: functional, cell-based, Homo sapiens; conditions: Homo sapiens, HCT-15;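 note: cell viability readout, IC50 reflecting suppression of HCT-15 cell growth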
Description: SANGER: Inhibition of human HCT-15 cell growth in a cell viability assay.

[43] = system: NCI-H2196; assay: cells; assay type: functional, cell-based; conditions: Homo sapiens;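 note: cell viability assay used as the readout of growth inhibition in NCI-H2196 cells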
Description: SANGER: Inhibition of human NCI-H2196 cell growth in a cell viability assay.

[44] = system: NCI-H524; assay: cells; assay type: functional, cell-based; conditions: Homo sapiens;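 note: growth inhibition of human NCI-H524 cells, read out through a cell viability assay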
Description: SANGER: Inhibition of human NCI-H524 cell growth in a cell viability assay.

[45] = system: SNU-423; assay: cells; assay type: functional, cell-based, Homo sapiens; conditions: Homo sapiens, SNU-423
Description: SANGER: Inhibition of human SNU-423 cell growth in a cell viability assay.

[46] = system: NCCIT; assay: SANGER: Inhibition of human NCCIT cell growth in a cell viability assay.; assay type: functional, cell-based
[47] = system: NCI-H719; assay: cells; assay type: functional, cell-based; conditions: Homo sapiens;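 note: growth inhibition of the cultured cell line, read out with a viability assay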
Description: SANGER: Inhibition of human NCI-H719 cell growth in a cell viability assay.

[48] = system: COR-L279; assay: SANGER: Inhibition of human COR-L279 cell growth in a cell viability assay.; assay type: functional, cell-based
[49] = system: P31-FUJ; assay: cells; assay type: functional, cell-based; conditions: Homo sapiens;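 note: growth inhibition of P31-FUJ cells, read out with a viability assay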
Description: SANGER: Inhibition of human P31-FUJ cell growth in a cell viability assay.

[50] = system: HuO9; assay: cells; assay type: functional, cell-based, Homo sapiens; conditions: Homo sapiens, HuO9;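 note: growth inhibition of HuO9 cells, read out with a cell viability assay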
Description: SANGER: Inhibition of human HuO9 cell growth in a cell viability assay.

[51] = system: PLC-PRF-5; assay: cells; assay type: functional, cell-based; conditions: Homo sapiens;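 note: growth inhibition of human PLC-PRF-5 cells, read out with a viability assay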
Description: SANGER: Inhibition of human PLC-PRF-5 cell growth in a cell viability assay.

[52] = system: NCI-H2227; assay: cells; assay type: functional, cell-based; conditions: Homo sapiens;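 note: growth inhibition of the human cell line, read out with a cell viability assay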
Description: SANGER: Inhibition of human NCI-H2227 cell growth in a cell viability assay.

COC(=O)CNC(=O)C(=O)OC
IC50 [1]: 1080 µM
IC50 [2]: 729 µM
IC50 [3]: 1670 µM
IC50 [4]: > 4000 µM
IC50 [5]: 15.9 µM
IC50 [6]: > 4000 µM
IC50 [7]: 60.8 µM
IC50 [8]: 13.3 µM
IC50 [9]: 4.58 µM
IC50 [10]: > 4000 µM
IC50 [11]: 1800 µM
IC50 [12]: 86.1 µM
IC50 [13]: 1800 µM
IC50 [14]: 318 µM
IC50 [15]: > 4000 µM
IC50 [16]: 3880 µM
IC50 [17]: 68.3 µM
IC50 [18]: > 4000 µM
IC50 [19]: 291 µM
IC50 [20]: 552 µM
IC50 [21]: 2100 µM
IC50 [22]: 239 µM
IC50 [23]: > 4000 µM
IC50 [24]: > 4000 µM
IC50 [25]: 414 µM
IC50 [26]: > 4000 µM
IC50 [27]: > 4000 µM
IC50 [28]: 2580 µM
IC50 [29]: 85 µM
IC50 [30]: 28.8 µM
IC50 [31]: 538 µM
IC50 [32]: 1070 µM
IC50 [33]: > 4000 µM
IC50 [34]: > 4000 µM
IC50 [35]: 553 µM
IC50 [36]: 1340 µM
IC50 [37]: 171 µM
IC50 [38]: 896 µM
IC50 [39]: > 4000 µM
IC50 [40]: > 4000 µM
IC50 [41]: 509 µM
IC50 [42]: 1820 µM
IC50 [43]: 2960 µM
IC50 [44]: 2760 µM
IC50 [45]: 175 µM
IC50 [46]: 99.8 µM
IC50 [47]: 566 µM
IC50 [48]: > 4000 µM
IC50 [49]: > 4000 µM
IC50 [50]: 589 µM
IC50 [51]: 1190 µM
IC50 [52]: 3060 µM

COc1cc([C@@H]2c3cc4c(cc3[C@@H](O[C@@H]3O[C@@H]5CO[C@@H](C)O[C@H]5[C@H](O)[C@H]3O)[C@H]3COC(=O)[C@H]23)OCO4)cc(OC)c1O [ETOPOSIDE]
IC50 [1]: > 16 µM
IC50 [2]: 0.125 µM
IC50 [3]: 4.33 µM
IC50 [4]: > 16 µM
IC50 [5]: 7.07 µM
IC50 [6]: 1.63 µM
IC50 [7]: 0.384 µM
IC50 [8]: 12.5 µM
IC50 [9]: 0.443 µM
IC50 [10]: 6.91 µM
IC50 [11]: 0.954 µM
IC50 [12]: 0.545 µM
IC50 [13]: 0.116 µM
IC50 [14]: 0.763 µM
IC50 [15]: 0.265 µM
IC50 [16]: 9.12 µM
IC50 [17]: 5.36 µM
IC50 [18]: 1.47 µM
IC50 [19]: 2.54 µM
IC50 [20]: 1.71 µM
IC50 [21]: > 16 µM
IC50 [22]: 1.06 µM
IC50 [23]: > 16 µM
IC50 [24]: > 16 µM
IC50 [25]: 1.26 µM
IC50 [26]: > 16 µM
IC50 [27]: 1.51 µM
IC50 [28]: > 16 µM
IC50 [29]: 0.206 µM
IC50 [30]: > 16 µM
IC50 [31]: > 16 µM
IC50 [32]: 0.458 µM
IC50 [33]: > 16 µM
IC50 [34]: 1.16 µM
IC50 [35]: > 16 µM
IC50 [36]: > 16 µM
IC50 [37]: 0.722 µM
IC50 [38]: 7.89 µM
IC50 [39]: > 16 µM
IC50 [40]: > 16 µM
IC50 [41]: 0.58 µM
IC50 [42]: 7.87 µM
IC50 [43]: 7.49 µM
IC50 [44]: > 16 µM
IC50 [45]: 1.75 µM
IC50 [46]: > 16 µM
IC50 [47]: > 16 µM
IC50 [48]: 1.27 µM
IC50 [49]: > 16 µM
IC50 [50]: 0.926 µM
IC50 [51]: > 16 µM
IC50 [52]: > 16 µM
